Values joined by “and” are separate entries in the source; they are usually repeats but may differ in a detail not shown here. Equal entries are not always repeated.
Experiment: molar heat capacity at constant pressure
Settings: 101.33 kPa, Crystal, Small sample (50 mg) DSC

[Pb].[Pb].[Pb].[U] [uranium trilead]
Settings | molar heat capacity at constant pressure
316.34 K | 102.56 J/K/mol and 102.48 J/K/mol
326.01 K | 102.76 J/K/mol and 102.64 J/K/mol
336.81 K | 102.96 J/K/mol and 102.76 J/K/mol
346.52 K | 102.92 J/K/mol and 103.16 J/K/mol
356.26 K | 103 J/K/mol and 103.32 J/K/mol
366.02 K | 103.12 J/K/mol and 103.44 J/K/mol
375.81 K | 103.24 J/K/mol and 103.6 J/K/mol
385.63 K | 103.36 J/K/mol and 103.72 J/K/mol
395.49 K | 103.44 J/K/mol and 103.88 J/K/mol
405.37 K | 103.52 J/K/mol and 104 J/K/mol
415.29 K | 104.12 J/K/mol and 103.64 J/K/mol
425.25 K | 104.24 J/K/mol and 103.72 J/K/mol
435.23 K | 104.32 J/K/mol and 103.8 J/K/mol
445.22 K | 104.44 J/K/mol and 103.88 J/K/mol
455.21 K | 104.56 J/K/mol and 103.96 J/K/mol
465.2 K | 104.64 J/K/mol and 104 J/K/mol
475.19 K | 104.72 J/K/mol and 104.08 J/K/mol
485.18 K | 104.8 J/K/mol and 104.16 J/K/mol
495.17 K | 104.92 J/K/mol and 104.2 J/K/mol
505.15 K | 105 J/K/mol and 104.28 J/K/mol
515.13 K | 105.08 J/K/mol and 104.32 J/K/mol
525.11 K | 105.12 J/K/mol and 104.4 J/K/mol
535.04 K | 105.2 J/K/mol and 104.44 J/K/mol
544.83 K | 105.28 J/K/mol and 104.48 J/K/mol
554.76 K | 105.36 J/K/mol and 104.52 J/K/mol
564.58 K | 105.4 J/K/mol and 104.56 J/K/mol
574.42 K | 105.48 J/K/mol and 104.64 J/K/mol
584.3 K | 105.52 J/K/mol and 104.68 J/K/mol
594.25 K | 105.6 J/K/mol and 104.72 J/K/mol
604.13 K | 105.64 J/K/mol and 104.76 J/K/mol

Source: the NIST ThermoML archive (doi:10.1016/j.tca.2016.05.012)
